Columns and labels:
rodents [1] = conditions: single oral dose, and above; cited from earlier work
rodents [2] = test system: rodents
humans = conditions: dose as low as; cited from earlier work
dogs = conditions: single oral dose, and above; cited from earlier work
human subjects = conditions: cited from earlier work
monkeys = conditions: single oral dose; cited from earlier work

## CCCN[C@H]1CCc2nc(N)sc2C1 [pramipexole, (6S)-4,5,6,7-tetrahydro-N6-propyl-2,6-benzothiazole-diamine]
Rodents [1]
  dose at which death occurred: 70 to 105 mg/kg
Rodents [2]; human equivalent
  equivalent human dose of the rodent lethal dose: 7 to 12 mg/kg
Rodents [2]; rodents, in vivo
  equivalent human dose of the rodent lethal dose for a 70 kg individual: 500 to 850 mg
humans
  dose shown to cause somnolence: 1.5 mg
dogs
  dose at which vomiting occurred: ≥ 0.0007 mg/kg
Human subjects
  initial single dose not tolerated: greater than 0.20 mg
monkeys
  dose at which major excitation was displayed: 3.5 mg/kg
